Measurements from ChEMBL document CHEMBL4376816, “Discovery of the Oral Leukotriene C4 Synthase Inhibitor (1S,2S)-2-({5-[(5-Chloro-2,4-difluorophenyl)(2-fluoro-2-methylpropyl)amino]-3-methoxypyrazin-2-yl}carbonyl)cyclopropanecarboxylic Acid (AZD9898) as a New Treatment for Asthma” (J Med Chem, 2019).
Converted amounts (≈) assume the structure as drawn. The source made the active and inactive calls. The calls are words filed in the database; no cut-off is given here.

Legend:
[1] = Cmax in po dosed rat at LOAEL measured after 7 days; type: ADME, organism-based; set-up: route oral; conditions: in vivo
[2] = target: Cytochrome P450 3A4 (Homo sapiens, UniProt P08684); experiment: Inhibition of recombinant human CYP3A4 expressed in Escherichia coli using coumarin based substrate by fluorescence assay; type: ADME
[3] = Volume of distribution at steady state in Han Wistar rat at 0.5 mg/kg, iv or 1 mg/kg, po after 24 hrs; type: ADME, organism-based; conditions: in vivo, read-out: Vdss
[4] = system: Rattus norvegicus; experiment: In vivo inhibition of LTC4S in po dosed Sprague-Dawley rat assessed as unbound drug concentration required for inhibition of calcium ionophore A23187-induced cysteinyl leukotrienes production in BAL fluid by LC-MS/MS analysis; type: functional
[5] = AUC in po dosed rat at NOAEL measured after 7 days; type: ADME, organism-based; conditions: in vivo
[6] = Clearance in Han Wistar rat at 0.5 mg/kg, iv or 1 mg/kg, po after 24 hrs; type: ADME, organism-based; conditions: in vivo
[7] = AUC in po dosed rat at LOAEL measured after 7 days; type: ADME, organism-based; conditions: in vivo
[8] = Effective half life in Beagle dog at 1 mg/kg, iv infusion or 2 mg/kg, po via gavage after 48 hrs; type: ADME, organism-based, Canis lupus familiaris; conditions: in vivo, read-out: t1/2eff (converted)
[9] = Toxicity in rat assessed as liver hypertrophy at 300 mg/kg, po after 7 days; type: organism-based; conditions: in vivo
[10] = target: T1, Cytochrome P450 1A2 (Homo sapiens, UniProt P05177); experiment: Inhibition of recombinant human CYP1A2 using coumarin based substrate by fluorescence assay; type: ADME
T1 sequence (P05177 whole entry): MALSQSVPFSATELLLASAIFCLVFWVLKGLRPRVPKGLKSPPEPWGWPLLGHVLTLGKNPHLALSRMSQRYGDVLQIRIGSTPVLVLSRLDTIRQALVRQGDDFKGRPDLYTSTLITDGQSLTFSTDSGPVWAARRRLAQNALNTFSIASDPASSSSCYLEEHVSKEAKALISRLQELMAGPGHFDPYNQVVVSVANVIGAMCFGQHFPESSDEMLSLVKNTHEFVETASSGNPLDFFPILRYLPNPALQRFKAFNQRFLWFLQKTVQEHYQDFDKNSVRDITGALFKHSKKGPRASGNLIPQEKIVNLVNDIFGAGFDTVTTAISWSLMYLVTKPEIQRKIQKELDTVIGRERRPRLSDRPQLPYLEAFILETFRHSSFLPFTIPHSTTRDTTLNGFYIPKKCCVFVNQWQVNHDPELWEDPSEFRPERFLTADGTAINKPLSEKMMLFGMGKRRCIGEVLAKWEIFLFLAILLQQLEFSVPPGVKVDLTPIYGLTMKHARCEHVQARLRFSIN

[11] = Effective half life in Han Wistar rat at 0.5 mg/kg, iv or 1 mg/kg, po after 24 hrs; type: ADME, organism-based; conditions: in vivo, read-out: t1/2eff (converted)
[12] = target: Cytochrome P450 2D6 (Homo sapiens, UniProt P10635); experiment: Inhibition of recombinant human CYP2D6 using coumarin based substrate by fluorescence assay; type: ADME
[13] = Thermodynamic solubility of compound in pH 7.4 PBS at 1 mg/ml incubated for 24 hrs under shaking condition by LC-MS/MS analysis; type: physicochemical; conditions: read-out: Therm_solubility
[14] = Toxicity in rat assessed as sperm granuloma at 300 mg/kg, po after 7 days; type: organism-based; conditions: in vivo
[15] = Intrinsic clearance in human hepatocytes at 1 uM assessed as per million cells after 2 to 60 mins by LC-MS/MS analysis; type: ADME, cell-based, Hepatocyte; conditions: read-out: CLH
[16] = Octanol/Sodium phosphate buffer partition coefficient, log D of compound at pH 7.4 at 1 mg incubated for overnight under shaking condition by LC-MS/MS analysis; type: physicochemical
[17] = Fraction unbound in Sprague-Dawley rat plasma by equilibrium dialysis based LC-MS analysis; type: ADME, cell-free
[18] = Cmax in po dosed rat at NOAEL measured after 7 days; type: ADME, organism-based; set-up: route oral; conditions: in vivo
[19] = Oral bioavailability in Han Wistar rat at 1 mg/kg after 24 hrs; type: ADME, organism-based; conditions: in vivo
[20] = Volume of distribution at steady state in Beagle dog at 1 mg/kg, iv infusion or 2 mg/kg, po via gavage after 48 hrs; type: ADME, organism-based, Canis lupus familiaris; conditions: in vivo, read-out: Vdss
[21] = Fraction unbound in human plasma by equilibrium dialysis based LC-MS analysis; type: ADME, cell-free
[22] = Fraction unbound in Beagle dog plasma by equilibrium dialysis based LC-MS analysis; type: ADME, cell-free, Canis lupus familiaris
[23] = Toxicity in rat assessed as bilirubinemia at 300 mg/kg, po after 7 days; type: organism-based; conditions: in vivo
[24] = target: Voltage-gated inwardly rectifying potassium channel KCNH2 (Homo sapiens, UniProt Q12809); experiment: Inhibition of human ERG by electrophysiology based assay
[25] = target: T2, Solute carrier organic anion transporter family member 1B1 (Homo sapiens, UniProt Q9Y6L6); experiment: Inhibition of OATP1B1 (unknown origin) expressed in HEK293 cells measured after 0.5 to 20 mins by scintillation counting analysis; type: ADME, cell-based
T2 sequence (Q9Y6L6 whole entry): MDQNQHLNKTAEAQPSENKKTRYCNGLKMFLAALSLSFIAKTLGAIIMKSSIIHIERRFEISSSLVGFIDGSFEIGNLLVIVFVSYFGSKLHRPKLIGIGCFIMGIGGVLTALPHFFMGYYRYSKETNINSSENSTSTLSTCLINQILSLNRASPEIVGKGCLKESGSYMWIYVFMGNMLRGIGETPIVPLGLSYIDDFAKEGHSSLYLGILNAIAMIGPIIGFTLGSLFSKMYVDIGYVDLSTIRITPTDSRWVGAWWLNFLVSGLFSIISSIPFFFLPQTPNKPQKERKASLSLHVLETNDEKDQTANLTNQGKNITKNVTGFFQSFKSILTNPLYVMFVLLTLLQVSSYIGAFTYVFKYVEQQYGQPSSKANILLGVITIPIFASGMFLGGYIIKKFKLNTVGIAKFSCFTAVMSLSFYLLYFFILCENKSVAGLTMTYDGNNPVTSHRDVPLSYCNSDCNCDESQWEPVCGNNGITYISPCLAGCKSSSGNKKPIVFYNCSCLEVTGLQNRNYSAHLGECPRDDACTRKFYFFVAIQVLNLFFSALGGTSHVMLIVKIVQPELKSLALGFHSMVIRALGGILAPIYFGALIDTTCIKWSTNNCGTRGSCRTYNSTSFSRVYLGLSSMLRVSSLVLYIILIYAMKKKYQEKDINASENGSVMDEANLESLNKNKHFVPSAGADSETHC

[26] = Apparent permeability across apical to basolateral side in human Caco2 cells; conditions: Caco-2
[27] = Clearance in Beagle dog at 1 mg/kg, iv infusion or 2 mg/kg, po via gavage after 48 hrs; type: ADME, organism-based, Canis lupus familiaris; conditions: in vivo
[28] = Oral bioavailability in Beagle dog at 2 mg/kg via gavage after 48 hrs; type: ADME, organism-based, Canis lupus familiaris; conditions: in vivo
[29] = Displacement of [3H]-GABA/[3]-muscimol from GABA gated chloride channel in Sprague-Dawley rat cortical synoptic membranes by liquid scintillation analysis
[30] = Toxicity in rat assessed as unilateral sperm granuloma at 300 mg/kg, po after 7 days; type: organism-based; conditions: in vivo
[31] = target: Cytochrome P450 2C19 (Homo sapiens, UniProt P33261); experiment: Inhibition of recombinant human CYP2C19 using coumarin based substrate by fluorescence assay; type: ADME
[32] = target: Cytochrome P450 2C9 (Homo sapiens, UniProt P11712); experiment: Inhibition of recombinant human CYP2C9 expressed in Escherichia coli using coumarin based substrate by fluorescence assay; type: ADME
[33] = target: T3, Leukotriene C4 synthase (Homo sapiens) (UniProt Q16873); experiment: Inhibition of LTC4S in asthmatic human whole blood assessed as inhibition of calcium ionophore A23187 stimulated cysteinyl leukotrienes production preincuabted for 30 mins followed by calcium ionophore stimulation and measured after 10 mins by LC-MS analysis; type: tissue-based
T3 sequence (whole entry): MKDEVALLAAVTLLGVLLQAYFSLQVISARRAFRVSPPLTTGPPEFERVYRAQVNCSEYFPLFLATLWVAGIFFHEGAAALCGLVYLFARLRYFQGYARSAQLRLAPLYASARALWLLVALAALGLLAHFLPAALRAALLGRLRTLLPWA

[34] = target: T3, Leukotriene C4 synthase (Homo sapiens); experiment: Inhibition of LTC4S in healthy human whole blood assessed as inhibition of calcium ionophore A23187 stimulated cysteinyl leukotrienes production preincuabted for 30 mins followed by calcium ionophore stimulation and measured after 10 mins by LC-MS analysis; type: tissue-based
[35] = target: T4, Leukotriene C4 synthase (Homo sapiens, UniProt Q16873)
T4 sequence (Q16873 whole entry): T3 sequence (whole entry)

Cytochrome P450 2C9, sequence (P11712 whole entry): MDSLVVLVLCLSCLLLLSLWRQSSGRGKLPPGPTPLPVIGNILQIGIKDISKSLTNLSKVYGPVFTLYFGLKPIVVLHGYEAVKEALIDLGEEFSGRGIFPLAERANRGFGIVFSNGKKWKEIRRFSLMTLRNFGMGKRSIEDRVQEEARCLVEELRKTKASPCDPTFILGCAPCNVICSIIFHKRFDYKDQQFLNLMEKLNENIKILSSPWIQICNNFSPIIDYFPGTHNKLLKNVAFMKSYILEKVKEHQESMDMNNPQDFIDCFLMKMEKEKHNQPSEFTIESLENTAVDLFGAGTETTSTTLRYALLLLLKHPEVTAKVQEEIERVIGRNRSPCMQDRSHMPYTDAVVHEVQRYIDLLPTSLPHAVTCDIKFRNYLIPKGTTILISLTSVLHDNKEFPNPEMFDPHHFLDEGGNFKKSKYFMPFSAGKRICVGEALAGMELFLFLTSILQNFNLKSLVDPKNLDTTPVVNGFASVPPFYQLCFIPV
Cytochrome P450 3A4, sequence (P08684 whole entry): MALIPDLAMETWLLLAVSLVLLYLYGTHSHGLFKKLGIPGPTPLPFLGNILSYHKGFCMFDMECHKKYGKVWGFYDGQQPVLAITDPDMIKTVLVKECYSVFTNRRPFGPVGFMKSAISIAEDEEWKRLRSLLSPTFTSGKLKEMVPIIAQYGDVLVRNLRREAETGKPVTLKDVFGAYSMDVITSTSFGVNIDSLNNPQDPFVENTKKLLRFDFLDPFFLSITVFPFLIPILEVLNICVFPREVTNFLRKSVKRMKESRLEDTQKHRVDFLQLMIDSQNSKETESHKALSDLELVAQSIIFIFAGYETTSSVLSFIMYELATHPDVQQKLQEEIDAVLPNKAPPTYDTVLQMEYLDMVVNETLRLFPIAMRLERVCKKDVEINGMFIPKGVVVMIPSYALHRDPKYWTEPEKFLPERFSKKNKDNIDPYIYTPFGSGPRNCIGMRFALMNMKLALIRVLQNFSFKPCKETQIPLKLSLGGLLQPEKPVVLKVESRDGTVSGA
Voltage-gated inwardly rectifying potassium channel KCNH2, sequence (Q12809 whole entry): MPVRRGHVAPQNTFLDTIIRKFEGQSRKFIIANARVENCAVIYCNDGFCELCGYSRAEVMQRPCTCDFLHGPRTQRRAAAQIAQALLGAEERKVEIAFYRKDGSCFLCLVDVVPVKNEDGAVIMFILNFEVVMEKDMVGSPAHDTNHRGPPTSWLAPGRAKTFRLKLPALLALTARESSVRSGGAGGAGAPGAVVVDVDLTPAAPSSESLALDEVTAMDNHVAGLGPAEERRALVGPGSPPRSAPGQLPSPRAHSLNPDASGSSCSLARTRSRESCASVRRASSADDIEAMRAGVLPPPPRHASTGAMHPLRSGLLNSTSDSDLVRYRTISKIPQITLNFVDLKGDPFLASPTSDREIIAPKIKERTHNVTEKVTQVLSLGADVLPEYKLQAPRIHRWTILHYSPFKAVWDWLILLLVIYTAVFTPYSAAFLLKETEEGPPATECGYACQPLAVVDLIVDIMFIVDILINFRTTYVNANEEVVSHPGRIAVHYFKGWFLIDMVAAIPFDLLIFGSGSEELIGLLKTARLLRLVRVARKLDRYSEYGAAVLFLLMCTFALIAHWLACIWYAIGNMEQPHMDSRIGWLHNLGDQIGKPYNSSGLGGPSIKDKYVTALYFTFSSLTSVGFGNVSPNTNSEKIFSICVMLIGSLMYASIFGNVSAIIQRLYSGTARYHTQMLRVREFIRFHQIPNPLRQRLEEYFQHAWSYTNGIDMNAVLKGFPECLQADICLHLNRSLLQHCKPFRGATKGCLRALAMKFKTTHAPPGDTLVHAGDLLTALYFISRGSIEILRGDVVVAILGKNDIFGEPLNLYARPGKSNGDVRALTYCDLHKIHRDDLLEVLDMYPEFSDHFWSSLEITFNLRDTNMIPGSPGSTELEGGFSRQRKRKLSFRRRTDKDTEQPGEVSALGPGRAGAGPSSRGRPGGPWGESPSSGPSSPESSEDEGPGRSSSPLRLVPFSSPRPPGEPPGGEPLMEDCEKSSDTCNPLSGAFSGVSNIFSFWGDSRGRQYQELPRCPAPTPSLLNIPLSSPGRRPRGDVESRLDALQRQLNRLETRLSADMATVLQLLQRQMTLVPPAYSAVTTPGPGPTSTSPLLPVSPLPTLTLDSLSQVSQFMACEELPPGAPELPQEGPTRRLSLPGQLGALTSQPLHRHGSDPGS
Cytochrome P450 2C19, sequence (P33261 whole entry): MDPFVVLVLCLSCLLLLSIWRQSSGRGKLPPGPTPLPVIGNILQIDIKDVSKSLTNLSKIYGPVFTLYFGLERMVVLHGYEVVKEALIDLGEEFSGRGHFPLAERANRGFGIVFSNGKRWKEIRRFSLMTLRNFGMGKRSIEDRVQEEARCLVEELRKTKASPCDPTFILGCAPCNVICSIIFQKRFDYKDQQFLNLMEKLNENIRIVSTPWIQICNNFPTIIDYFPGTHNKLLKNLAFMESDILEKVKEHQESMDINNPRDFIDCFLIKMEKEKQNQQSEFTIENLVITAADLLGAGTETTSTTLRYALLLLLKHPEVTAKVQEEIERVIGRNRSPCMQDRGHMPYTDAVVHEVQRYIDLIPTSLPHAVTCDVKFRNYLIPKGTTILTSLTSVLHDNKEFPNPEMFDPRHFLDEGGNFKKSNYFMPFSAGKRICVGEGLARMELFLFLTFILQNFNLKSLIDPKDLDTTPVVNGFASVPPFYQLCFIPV
Cytochrome P450 2D6, sequence (P10635 whole entry): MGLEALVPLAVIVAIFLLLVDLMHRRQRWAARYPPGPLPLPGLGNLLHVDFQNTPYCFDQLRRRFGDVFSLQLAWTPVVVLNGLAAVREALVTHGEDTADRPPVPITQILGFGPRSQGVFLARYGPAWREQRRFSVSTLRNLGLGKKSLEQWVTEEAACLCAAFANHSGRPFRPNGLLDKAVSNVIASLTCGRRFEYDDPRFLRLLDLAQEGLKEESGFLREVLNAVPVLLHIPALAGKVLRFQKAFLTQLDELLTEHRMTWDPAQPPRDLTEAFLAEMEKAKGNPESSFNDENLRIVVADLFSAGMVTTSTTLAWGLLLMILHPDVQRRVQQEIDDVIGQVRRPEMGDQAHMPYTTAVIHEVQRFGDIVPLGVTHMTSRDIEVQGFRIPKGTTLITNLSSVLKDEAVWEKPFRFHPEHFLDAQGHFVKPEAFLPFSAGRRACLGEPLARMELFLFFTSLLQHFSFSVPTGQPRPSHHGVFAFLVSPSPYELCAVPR

SMILES: COc1cc(N(CC2CC2)c2ccc(Cl)c3ccccc23)cnc1C(=O)[C@H]1C[C@@H]1C(=O)O
- Cmax at […] [1]: 144 µM
- IC50 [2]: > 20 µM
- Vd [3]: 2.8 L/kg
- fEC50 [4]: 7.5 nM
- AUC [5]: 200 µM·h
- clearance [6]: 12 mL/min/kg
- AUC [7]: 1830 µM·h
- half-life [8]: 4.8 h
- Activity [9]: Toxic
- IC50 [10]: > 20 µM
- half-life [11]: 2.7 h
- IC50 [12]: > 20 µM
- solubility thermodynamic at 24 h [13]: 576 µM (≈ 260 µg/mL)
- Activity [14]: Toxic
- hepatocyte CLint at 1 µM [15]: 5 µL/min/1e6 cells
- logD [16]: 2.4
- fraction unbound [17]: 0.0062
- Cmax at […] [18]: 47 µM
- bioavailability [19]: 46%
- Vd [20]: 1.1 L/kg
- fraction unbound [21]: 0.0066
- fraction unbound [22]: 0.0021
- Activity [23]: Toxic
- inhibition (INH) [24]: Not Active
- INH [25]: 0.6 µM
- Papp A→B [26]: 105 ×10⁻⁶ cm/s
- clearance [27]: 2.4 mL/min/kg
- bioavailability [28]: 91%
- IC50 [29]: 0.074 µM
- Activity [30]: Toxic
- IC50 [31]: > 20 µM
- IC50 [32]: > 20 µM

SMILES: CC(C)(O)c1ccccc1CC[C@@H](SCC1(CC(=O)O)CC1)c1cccc(/C=C/c2ccc3ccc(Cl)cc3n2)c1 [MONTELUKAST]
- inhibition [33]: Active
- inhibition [34]: Active
- IC50 [35]: < 5 µM
